# Source: patent publication US4933350A, “Pyrroloisoquinolines useful as hypercholesterolemic and hyperlipoprotienimic agents” (May & Baker Limited, priority 1987, dated 1990)
# Legend:
# [1] = molecular target: T1, rat hepatic microsomal HMG CoA reductase (Rattus norvegicus, UniProt P51639); assay: inhibition in rat hepatic microsomal HMG CoA reductase activity in vitro (Table I); format: biochemical; conditions: for inhibition at 0.0091 µg/mL: 0.0091 micrograms/ml; for inhibition at 0.0274 µg/mL: 0.0274 micrograms/ml; for inhibition at 0.082 µg/mL: 0.082 micrograms/ml; for inhibition at 0.24 µg/mL: 0.24 micrograms/ml; for inhibition at 0.74 µg/mL: 0.74 micrograms/ml; for inhibition at 2.22 µg/mL: 2.22 micrograms/ml; for inhibition at 0.25 µg/mL: 0.25 micrograms/ml; for inhibition at 0.2 µg/mL: 0.2 micrograms/ml; for inhibition at 20 µg/mL: 20.0 micrograms/ml; for inhibition at 6.7 µg/mL: 6.7 micrograms/ml; for inhibition at 6.66 µg/mL: 6.66 micrograms/ml
# T1 construct: rat hepatic microsomal HMG CoA reductase activity in vitro; from tissue; host or cells: rat liver microsomes
# T1 sequence (P51639 1-887): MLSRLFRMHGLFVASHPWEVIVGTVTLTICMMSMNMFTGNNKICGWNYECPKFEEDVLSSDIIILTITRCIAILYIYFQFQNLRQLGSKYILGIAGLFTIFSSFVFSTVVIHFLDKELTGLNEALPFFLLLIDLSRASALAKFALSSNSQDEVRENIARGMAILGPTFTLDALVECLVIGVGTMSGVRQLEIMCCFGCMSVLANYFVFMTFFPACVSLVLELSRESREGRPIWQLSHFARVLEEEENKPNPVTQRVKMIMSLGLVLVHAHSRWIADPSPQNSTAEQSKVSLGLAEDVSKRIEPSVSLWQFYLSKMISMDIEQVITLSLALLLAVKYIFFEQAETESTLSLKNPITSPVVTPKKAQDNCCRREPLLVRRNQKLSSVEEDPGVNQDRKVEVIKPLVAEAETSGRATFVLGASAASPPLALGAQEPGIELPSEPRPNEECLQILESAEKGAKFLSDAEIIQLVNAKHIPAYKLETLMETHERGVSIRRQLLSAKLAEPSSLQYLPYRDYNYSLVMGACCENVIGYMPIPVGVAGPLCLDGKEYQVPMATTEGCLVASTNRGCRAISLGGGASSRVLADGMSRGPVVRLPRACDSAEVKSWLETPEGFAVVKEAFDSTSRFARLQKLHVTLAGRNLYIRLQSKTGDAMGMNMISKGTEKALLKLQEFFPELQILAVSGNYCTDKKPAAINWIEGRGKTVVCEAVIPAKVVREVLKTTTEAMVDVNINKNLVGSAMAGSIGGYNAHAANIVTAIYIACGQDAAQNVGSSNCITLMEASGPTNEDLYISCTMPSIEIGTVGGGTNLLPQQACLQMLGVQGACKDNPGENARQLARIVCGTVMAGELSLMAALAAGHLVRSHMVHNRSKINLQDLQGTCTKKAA
# cholesterol biosynthesis = assay: inhibition in cholesterol biosynthesis, in vivo tests in rats, oral (Table II)
# From the text: In the table the doses are expressed in mg/kg animal body weight.
inhibition at 0.0274 µg/mL [1] [%],Structure (SMILES),inhibition at 0.082 µg/mL [1] [%],inhibition at 0.24 µg/mL [1] [%],inhibition at 0.74 µg/mL [1] [%],inhibition at 2.22 µg/mL [1] [%],inhibition at 20 µg/mL [1] [%],inhibition at 6.66 µg/mL [1] [%],other results
51,"CC(C)c1c(/C=C/[C@@H](O)C[C@@H](O)CC(=O)O)c(-c2ccc(F)cc2)c2c3ccccc3ccn12 (relative stereo) [OA, sodium erythro-(E)-3,5-dihydroxy-7-{3-isopropyl-1-(4-fluorophenyl)pyrrolo[2,1-a]isoquinolin-2-yl}-hept-6-enoate]",63,74,87,95,–,–,inhibition at 0.00304 µg/mL ([1]; 0.00304 micrograms/ml): 37%; inhibition at 0.0091 µg/mL [1]: 43%
21,"CC(C)c1c(/C=C/[C@@H](O)C[C@H](O)CC(=O)O)c(-c2ccc(F)cc2)c2c3ccccc3ccn12 (relative stereo) [OB, sodium threo-(E)-3,5-dihydroxy-7-{3-isopropyl-1-(4-fluorophenyl)pyrrolo[2,1-a]isoquinolin-2-yl}-hept-6-enoate]",29,–,53,70,–,–,inhibition at 0.25 µg/mL [1]: 38%
55,"CCOC(=O)CC(O)CC(O)/C=C/c1c(-c2ccc(F)cc2)c2c3ccccc3ccn2c1C(C)C (centres unmarked) [N, ethyl (E)-3,5-dihydroxy-7-{3-isopropyl-1-(4-fluorophenyl)pyrrolo[2,1-a]isoquinolin-2-yl}hept-6-enoate]",61,–,87,95,–,–,inhibition at 0.0091 µg/mL [1]: 44%; inhibition at 0.25 µg/mL [1]: 74%

# Continued, compound first:
Structure (SMILES),inhibition at 0.0274 µg/mL [1] [%],inhibition at 0.082 µg/mL [1] [%],inhibition at 0.24 µg/mL [1] [%],inhibition at 0.74 µg/mL [1] [%],inhibition at 2.22 µg/mL [1] [%],inhibition at 20 µg/mL [1] [%],inhibition at 6.66 µg/mL [1] [%],other results
"CC(C)c1c(/C=C/C(O)CC(O)CC(=O)[O-])c(-c2ccccc2)c2c3ccccc3ccn12.[Na+] (centres unmarked) [Compound B, sodium (E)-3,5-dihydroxy-7-(3-isopropyl-1-phenylpyrrolo[2,1-a]isoquinolin-2-yl)hept-6-enoate]",–,–,–,–,–,98,–,inhibition at 0.025 µg/mL ([1]; 0.025 micrograms/ml): 16%; inhibition at 0.1 µg/mL ([1]; 0.1 micrograms/ml): 28%; inhibition at 0.2 µg/mL [1]: 43%; inhibition at 0.4 µg/mL ([1]; 0.4 micrograms/ml): 44%; inhibition at 1.6 µg/mL ([1]; 1.6 micrograms/ml): 72%; inhibition at 2 µg/mL ([1]; 2.0 micrograms/ml): 81%; inhibition at 6.4 µg/mL ([1]; 6.4 micrograms/ml): 91%; % Inhibition in cholesterol biosynthesis (cholesterol biosynthesis; oral dose 1.11 mg/kg): 67%; % Inhibition in cholesterol biosynthesis (cholesterol biosynthesis; oral dose 3.33 mg/kg): 77%; % Inhibition in cholesterol biosynthesis (cholesterol biosynthesis; oral dose 10.0 mg/kg): 91%
"CC(C)c1c(/C=C/C(=O)CC(O)CC(=O)O)c(-c2ccccc2)c2c3ccccc3ccn12 (centres unmarked) [Compound E, (E)-3-hydroxy-7-(3-isopropyl-1-phenylpyrrolo[2,1-a]isoquinolin-2-yl)-5-oxohept-6-enoic acid]",–,–,–,–,–,90,–,inhibition at 2.2 µg/mL ([1]; 2.2 micrograms/ml): 50%; inhibition at 6.7 µg/mL [1]: 71%
"CC(C)c1c(CCC2CC(O)CC(=O)O2)c(-c2ccccc2)c2c3ccccc3ccn12 (centres unmarked) [Compound G, 4-hydroxy-6-[2-(3-isopropyl-1-phenylpyrrolo[2,1-a]isoquinolin-2-yl)ethyl]-3,4,5,6-tetrahydro-2H-pyran-2-one]",–,–,–,–,–,44,–,inhibition at 6.7 µg/mL [1]: 38%
"CCOC(=O)CC(O)CC(O)/C=C/c1c(-c2ccccc2)c2c3ccccc3ccn2c1C (centres unmarked) [Compound H, ethyl (E)-3,5-dihydroxy-7-(3-methyl-1-phenylpyrrolo[2,1-a]-isoquinolin-2-yl)hept-6-enoate]",–,–,26,22,33,70,54,–
"Cc1c(/C=C/C(O)CC(O)CC(=O)O)c(-c2ccccc2)c2c3ccccc3ccn12 (centres unmarked) [Compound I, sodium (E)-3,5-dihydroxy-7-(3-methyl-1-phenylpyrrolo[2,1-a]isoquinolin-2-yl)hept-6-enoate]",–,44,–,35,46,85,68,inhibition at 0.25 µg/mL [1]: 39%
"CCc1c(/C=C/C(O)CC(O)CC(=O)O)c(-c2ccc(F)cc2)c2c3ccccc3ccn12 (centres unmarked) [Compound K, sodium (E)-3,5-dihydroxy-7-{3-ethyl-1-(4-fluorophenyl)pyrrolo-[2,1-a]isoquinolin-2-yl}hept-6-enoate]",27,33,46,68,86,–,95,–
"CC(C)c1c(/C=C/C(O)CC(O)CC(=O)O)c(-c2ccc(F)cc2)n2ccc3ccccc3c12 (centres unmarked) [Compound M, sodium (E)-3,5-dihydroxy-7-{1-isopropyl-3-(4-fluorophenyl)pyrrolo[2,1-a]isoquinolin-2-yl}hept-6-enoate]",–,–,–,78,90,98,96,inhibition at 0.0025 µg/mL ([1]; 0.0025 micrograms/ml): 33%; inhibition at 0.0074 µg/mL ([1]; 0.0074 micrograms/ml): 46%; inhibition at 0.022 µg/mL ([1]; 0.022 micrograms/ml): 63%; inhibition at 0.066 µg/mL ([1]; 0.066 micrograms/ml): 69%; inhibition at 0.2 µg/mL [1]: 74%; inhibition at 0.22 µg/mL ([1]; 0.22 micrograms/ml): 65%
"CC(C)c1c(/C=C/C(=O)CC(O)CC(=O)O)c(-c2ccc(F)cc2)c2c3ccccc3ccn12 (centres unmarked) [Compound Q, sodium (E)-3-hydroxy-7-{3-isopropyl-1-(4-fluorophenyl)pyrrolo-[2,1-a]isoquinolin-2-yl}-5-oxohept-6-enoate]",–,8,22,45,70,–,89,–
"CC(C)c1c(/C=C/C(O)CC(O)CC(=O)O)c(-c2ccc(F)cc2)c2c3ccccc3ccn12 (centres unmarked) [O, sodium (E)-3,5-dihydroxy-7-{3-isopropyl-1-(4-fluorophenyl)pyrrolo[2,1-a]isoquinolin-2-yl}-hept-6-enoate]",–,–,69,81,92,99,97,–
